In US20230022157A1 (Achillion Pharmaceuticals, Inc., priority 2018, published 2023):

What follows are molecules tested against T1, Human Factor D (Homo sapiens, UniProt P00746) (assay: Human Factor D Assay). Settings: Human Factor D 80 nM, substrate Z-L-Lys-SBzl; Table 2; read-out: IC50 (Stars).
T1 construct: purified from human serum; purchased Complement Technology, Inc; host or cells: human serum (natural protein, not recombinant)
T1 sequence (P00746 26-253): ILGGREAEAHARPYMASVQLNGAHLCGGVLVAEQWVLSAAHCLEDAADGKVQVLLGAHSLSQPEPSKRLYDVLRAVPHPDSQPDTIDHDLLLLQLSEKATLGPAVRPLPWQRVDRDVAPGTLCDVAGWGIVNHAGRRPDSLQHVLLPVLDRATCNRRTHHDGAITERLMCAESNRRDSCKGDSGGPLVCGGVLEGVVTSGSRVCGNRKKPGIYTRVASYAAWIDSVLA
Assay type: biochemical
Procedure, shortened: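 Serum-purified human factor D (80 nM final) preincubated 5 min at room temperature with test compound in 50 mM Tris, 1M NaCl, pH 7.5. Z-L-Lys-SBzl substrate and DTNB then added, each at 100 μM final. IC50 from nonlinear regression of reaction rate against compound concentration.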
In the case of CC(=O)c1nn(CC(=O)N2[C@H](C(=O)N[C@H]3CCCCC3(F)F)C[C@@]3(C)C[C@@H]23)c2c(C)cc(-c3cnc(C)nc3)cc12 [Compound 149, (1R,3S,5R)-2-{2-[3-acetyl-7-methyl-5-(2-methylpyrimidin-5-yl)indazol-1-yl]acetyl}-N-[(1S)-2,2-difluorocyclohexyl]-5-methyl-2-azabicyclo[3.1.0]hexane-3-carboxamide], the IC50 is reported as < 1000 nM. CC(=O)c1nn(CC(=O)N2[C@H](C(=O)NCc3ccc4c(c3)CCCC4)C[C@@]3(C)C[C@@H]23)c2c(C)cc(-c3cnc(C)nc3)cc12 [Compound 150, (1R,3S,5R)-2-{2-[3-acetyl-7-methyl-5-(2-methylpyrimidin-5-yl)indazol-1-yl]acetyl}-5-methyl-N-(5,6,7,8-tetrahydronaphthalen-2-ylmethyl)-2-azabicyclo[3.1.0]hexane-3-carboxamide] was tested, and the IC50 was < 1000 nM. For CC(=O)c1nn(CC(=O)N2[C@H](C(=O)N[C@@H](C)c3ccc4c(c3)CCCC4)C[C@@]3(C)C[C@@H]23)c2c(C)cc(-c3cnc(C)nc3)cc12 [Compound 151, (1R,3S,5R)-2-{2-[3-acetyl-7-methyl-5-(2-methylpyrimidin-5-yl)indazol-1-yl]acetyl}-5-methyl-N-[(1S)-1-(5,6,7,8-tetrahydronaphthalen-2-yl)ethyl]-2-azabicyclo[3.1.0]hexane-3-carboxamide], the IC50 was 1000 to 10000 nM. CC(=O)c1nn(CC(=O)N2[C@H](C(=O)N[C@H](C)C(F)(F)F)C[C@@]3(C)C[C@@H]23)c2c(C)cc(-c3cnc(C)nc3)cc12 [Compound 152, (1R,3S,5R)-2-{2-[3-acetyl-7-methyl-5-(2-methylpyrimidin-5-yl)indazol-1-yl]acetyl}-5-methyl-N-[(2R)-1,1,1-trifluoropropan-2-yl]-2-azabicyclo[3.1.0]hexane-3-carboxamide] was tested, and the IC50 was < 1000 nM. In the case of CC(=O)c1nn(CC(=O)N2[C@H](C(=O)N[C@@H](C)C(F)(F)F)C[C@@]3(C)C[C@@H]23)c2c(C)cc(-c3cnc(C)nc3)cc12 [Compound 153, (1R,3S,5R)-2-{2-[3-acetyl-7-methyl-5-(2-methylpyrimidin-5-yl)indazol-1-yl]acetyl}-5-methyl-N-[(2S)-1,1,1-trifluoropropan-2-yl]-2-azabicyclo[3.1.0]hexane-3-carboxamide], the IC50 is reported as < 1000 nM. CC(=O)c1nn(CC(=O)N2[C@H](C(=O)N[C@@H](C(C)(C)C)C(F)(F)F)C[C@@]3(C)C[C@@H]23)c2c(C)cc(-c3cnc(C)nc3)cc12 [Compound 154, (1R,3S,5R)-2-{2-[3-acetyl-7-methyl-5-(2-methylpyrimidin-5-yl)indazol-1-yl]acetyl}-5-methyl-N-[(2S)-1,1,1-trifluoro-3,3-dimethylbutan-2-yl]-2-azabicyclo[3.1.0]hexane-3-carboxamide] was tested, and the IC50 was 1000 to 10000 nM. For CC(=O)c1cn(CC(=O)N2[C@H](C(=O)Nc3cncc(Br)n3)C[C@@]3(C)C[C@@H]23)c2c(C)cc(-c3cnc(C)nc3)cc12 [Compound 155, (1R,3S,5R)-2-(2-(3-acetyl-7-methyl-5-(2-methylpyrimidin-5-yl)-1H-indol-1-yl)acetyl)-N-(6-bromopyrazin-2-yl)-5-methyl-2-azabicyclo[3.1.0]hexane-3-carboxamide], the IC50 was < 1000 nM. With CC(=O)c1cn(CC(=O)N2[C@H](C(=O)Nc3ccc(C)c(Br)n3)C[C@@]3(C)C[C@@H]23)c2c(C)cc(-c3cnc(C)nc3)cc12 [Compound 156, (1R,3S,5R)-2-(2-(3-acetyl-7-methyl-5-(2-methylpyrimidin-5-yl)-1H-indol-1-yl)acetyl)-N-(6-bromo-5-methylpyridin-2-yl)-5-methyl-2-azabicyclo[3.1.0]hexane-3-carboxamide] the IC50 was < 1000 nM. CC(=O)c1cn(CC(=O)N2[C@H](C(=O)Nc3nc(Br)ccc3C)C[C@@]3(C)C[C@@H]23)c2c(C)cc(-c3cnc(C(C)O)nc3)cc12 (stereo partly drawn) [Compound 157, (1R,3S,5R)-2-(2-(3-acetyl-5-(2-(1-hydroxyethyl)pyrimidin-5-yl)-7-methyl-1H-indol-1-yl)acetyl)-N-(6-bromo-3-methylpyridin-2-yl)-5-methyl-2-azabicyclo[3.1.0]hexane-3-carboxamide] was tested, and the IC50 was < 1000 nM. In the case of CC(=O)c1cn(CC(=O)N2[C@H](C(=O)Nc3nc(Br)c(F)cc3C)C[C@@]3(C)C[C@@H]23)c2c(C)cc(-c3cnc(C(C)O)nc3)cc12 (stereo partly drawn) [Compound 158], the IC50 is reported as < 1000 nM. With CC(=O)c1cn(CC(=O)N2[C@H](C(=O)Nc3cncc(Br)n3)C[C@@]3(C)C[C@@H]23)c2c(C)cc(-c3cnc(C(C)O)nc3)cc12 (stereo partly drawn) [Compound 159, (1R,3S,5R)-2-(2-(3-acetyl-5-(2-(1-hydroxyethyl)pyrimidin-5-yl)-7-methyl-1H-indol-1-yl)acetyl)-N-(6-bromopyrazin-2-yl)-5-methyl-2-azabicyclo[3.1.0]hexane-3-carboxamide] the IC50 was < 1000 nM. In the case of CC(=O)c1cn(CC(=O)N2[C@H](C(=O)Nc3cnc(C)c(Br)n3)C[C@@]3(C)C[C@@H]23)c2c(C)cc(-c3cnc(C)nc3)cc12 [Compound 160, (1R,3S,5R)-2-(2-(3-acetyl-7-methyl-5-(2-methylpyrimidin-5-yl)-1H-indol-1-yl)acetyl)-N-(6-bromo-5-methylpyrazin-2-yl)-5-methyl-2-azabicyclo[3.1.0]hexane-3-carboxamide], the IC50 is reported as < 1000 nM. In the case of CC(=O)c1cn(CC(=O)N2[C@H](C(=O)Nc3nc(C(F)(F)F)ccc3C)C[C@@]3(C)C[C@@H]23)c2c(C)cc(-c3cnc(CO)nc3)cc12 [Compound 161, (1R,3S,5R)-2-(2-(3-acetyl-5-(2-(hydroxymethyl)pyrimidin-5-yl)-7-methyl-1H-indol-1-yl)acetyl)-5-methyl-N-(3-methyl-6-(trifluoromethyl)pyridin-2-yl)-2-azabicyclo[3.1.0]hexane-3-carboxamide], the IC50 is reported as < 1000 nM. In the case of CC(=O)c1cn(CC(=O)N2[C@H](C(=O)Nc3nc(Br)c(F)cc3C)C[C@@]3(C)C[C@@H]23)c2c(C3CC3)cc(-c3cnc(C)nc3)cc12 [Compound 162], the IC50 is reported as < 1000 nM. For CC(=O)c1cn(CC(=O)N2C[C@H]3C[C@H]3[C@H]2C(=O)Nc2nc(Br)c(F)cc2C)c2c(C3CC3)cc(-c3cnc(C)nc3)cc12 [Compound 163], the IC50 was < 1000 nM. In the case of CC(=O)c1nn(CC(=O)N2C[C@H]3C[C@H]3[C@H]2C(=O)Nc2nc(Br)ccc2C)c2c(C)cc(-c3cnc(C(C)O)nc3)cc12 (stereo partly drawn) [Compound 164, (1R,2S,5S)-3-(2-(3-acetyl-5-(2-(1-hydroxyethyl)pyrimidin-5-yl)-7-methyl-1H-indazol-1-yl)acetyl)-N-(6-bromo-3-methylpyridin-2-yl)-3-azabicyclo[3.1.0]hexane-2-carboxamide], the IC50 is reported as < 1000 nM. CC(=O)c1nn(CC(=O)N2C[C@H]3C[C@H]3[C@H]2C(=O)Nc2nc(Br)c(F)cc2C)c2c(C)cc(-c3cnc(C(C)O)nc3)cc12 (stereo partly drawn) [Compound 165, (1R,2S,5S)-3-(2-(3-acetyl-5-(2-(1-hydroxyethyl)pyrimidin-5-yl)-7-methyl-1H-indazol-1-yl)acetyl)-N-(6-bromo-5-fluoro-3-methylpyridin-2-yl)-3-azabicyclo[3.1.0]hexane-2-carboxamide] was tested, and the IC50 was < 1000 nM. In the case of CC(=O)c1nn(CC(=O)N2C[C@H]3C[C@H]3[C@H]2C(=O)Nc2nc(Br)ccc2Cl)c2c(C)cc(-c3cnc(C(C)O)nc3)cc12 (stereo partly drawn) [Compound 166], the IC50 is reported as < 1000 nM.
